Results: patent US11142514B2, “Imino compounds with a 2-chloropyrimidin-5-yl substituent as pest-control agents” (BASF SE, priority 2015, dated 2021)

Assays:
Type in all cases: in vivo
[1] = tested on: Cotton aphid (Aphis gossypii); assay: Cotton aphid (Aphis gossypii) foliar spray test B.3; conditions: for Activity in %: comparative experiment, 300 ppm, assay according to B.3
Protocol: (§1) The active compounds were formulated by a Tecan liquid handler in 100% cyclohexanone as a 10,000 ppm solution supplied in tubes. The 10,000 ppm solution was serially diluted in 100% cyclohexanone to make interim solutions. These served as stock solutions for which final dilutions were made by the Tecan in 50% acetone:50% water (v/v) into 10 or 20 ml glass vials. A nonionic surfactant (Kinetic®) was included in the solution at a volume of 0.01% (v/v). The vials were then inserted into an automated electrostatic sprayer equipped with an atomizing nozzle for application to plants/insects.
Cotton plants at the cotyledon stage were infested with aphids prior to treatment by placing a heavily infested leaf from the main aphid colony on top of each cotyledon. Aphids were allowed to transfer overnight to accomplish an infestation of 80-100 aphids per plant and the host leaf was removed. The infested plants were then sprayed by an automated electrostatic plant sprayer equipped with an atomizing spray nozzle. The plants were dried in the sprayer fume hood, removed from the sprayer, and then maintained in a growth room under fluorescent lighting in a 24-hr photoperiod at 25° C. and 20-40% relative humidity. Aphid mortality on the treated plants, relative to mortality on untreated control plants, was determined after 5 days.
(§2) The compound of example I-1 was compared with the compound of example I.B-4 of WO 2015/040116 having an unsubstituted pyrimidin-5-yl ring instead of the present 2-chloropyrimidin-5-yl ring with respect to the insecticidal activity. The assays were carried out as described above for the respective pest (the cotton aphid assay according to B.3).

[2] = tested on: Cowpea aphid (Aphis craccivora); assay: Cowpea aphid (Aphis craccivora) spray test B.5; conditions: for Activity in %: comparative experiment, 100 ppm
Protocol: (§3) The active compound was dissolved at the desired concentration in a mixture of 1:1 (vol:vol) distilled water: acetone. Surfactant (Kinetic® HV) was added at a rate of 0.01% (vol/vol). The test solution was prepared at the day of use.
Potted cowpea plants were colonized with approximately 30-50 aphids of various stages by manually transferring a leaf tissue cut from infested plant 24 hours before application. Plants were sprayed with the test solutions using a DeVilbiss® hand atomizer at 20-30 psi (≈1.38 to 2.07 bar) after the pest population has been checked. Treated plants were maintained on light carts at about 25-26° C. Percent mortality was assessed after 72 hours.
as §2

[3] = tested on: Green Peach Aphid (Myzus persicae); assay: Green peach aphid (Myzus persicae) foliar spray test B.7; conditions: for Activity in %: comparative experiment, 300 ppm
Protocol: as §1
Bell pepper plants at the first true-leaf stage were infested prior to treatment by placing heavily infested leaves from the main colony on top of the treatment plants. Aphids were allowed to transfer overnight to accomplish an infestation of 30-50 aphids per plant and the host leaves were removed. The infested plants were then sprayed by an automated electrostatic plant sprayer equipped with an atomizing spray nozzle. The plants were dried in the sprayer fume hood, removed, and then maintained in a growth room under fluorescent lighting in a 24 h photoperiod at about 25° C. and about 20-40% relative humidity. Aphid mortality on the treated plants, relative to mortality on untreated control plants, was determined after 5 days.
as §2

[4] = tested on: Green Soldier Stink Bug (Nezara viridula); assay: Green soldier stink bug (Nezara viridula) test B.8; conditions: in Glycine max, 120 h, read-out: mortality in comparison with untreated controls
Protocol: as §3
Soybean pods were placed in 90×50 mm glass Petri dishes lined with moist filter paper and inoculated with ten late 3rd instar N. viridula. Using a hand atomizer, an approximately 2 ml solution was sprayed into each Petri dish. Treated cups were kept at about 25-26° C. and relative humidity of about 65-70%. Percent mortality was recorded after 5 days.

[5] = tested on: Orchid thrips (Dichromothrips corbetti); assay: Orchid thrips (Dichromothrips corbetti) floral immersion test B.10; conditions: for Activity in %: comparative experiment, 10 ppm
Protocol: Dichromothrips corbetti adults used for bioassay were obtained from a colony maintained continuously under laboratory conditions. For testing purposes, the test compound was diluted in a 1:1 mixture of acetone:water (vol:vol), plus Kinetic® HV at a rate of 0.01% v/v.
Thrips potency of each compound was evaluated by using a floral immersion technique. All petals of individual, intact orchid flowers were dipped into treatment solution and allowed to dry in Petri dishes. Treated petals were placed into individual re-sealable plastic along with about 20 adult thrips. All test arenas were held under continuous light and a temperature of about 28° C. for duration of the assay. After 3 days, the numbers of live thrips were counted on each petal. The percent mortality was recorded 72 hours after treatment.
as §2

[6] = tested on: Rice green leafhopper (Nephotettix virescens); assay: Rice green leafhopper (Nephotettix virescens) spray test B.12; conditions: for Activity in %: comparative experiment, 10 ppm
Protocol: (§4) Four to five-week old rice seedlings with cut upper leaf portion were cleaned and washed 24 hours before spraying. The active compounds were formulated in 1:1 acetone:water (vol:vol), and 0.01% vol/vol surfactant (Kinetic® HV) was added. Potted rice seedlings were sprayed with 5-6 ml test solution, air dried, covered with Mylar cages and inoculated with 10 adults. Treated rice plants were kept at about 28-29° C. and relative humidity of about 50-60%. Percent mortality was recorded after 72 hours.
as §2

[7] = tested on: Rice brown plant hopper (Nilaparvata lugens); assay: Rice brown plant hopper (Nilaparvata lugens) spray test B.13; conditions: 72 h, read-out: mortality in comparison with untreated controls
Protocol: as §4, with “seedlings” for “seedlings with cut upper leaf portion”, “(vol:vol)” for “(vol:vol),”

[8] = tested on: Southern armyworm (Spodoptera eridania); assay: Southern armyworm (Spodoptera eridania) foliar spray test B.15; conditions: for Activity in %: comparative experiment, 300 ppm
Protocol: as §1
Lima bean plants (variety Sieva) were grown 2 plants to a pot and selected for treatment at the 1st true leaf stage. Test solutions were sprayed onto the foliage by an automated electrostatic plant sprayer equipped with an atomizing spray nozzle. The plants were dried in the sprayer fume hood and then removed from the sprayer. Each pot was placed into perforated plastic bags with a zip closure. About 10 to 11 armyworm larvae were placed into the bag and the bags zipped closed. Test plants were maintained in a growth room at about 25° C. and about 20-40% relative humidity for 4 days, avoiding direct exposure to fluorescent light (24 hour photoperiod) to prevent trapping of heat inside the bags. Mortality and reduced feeding were assessed 4 days after treatment, compared to untreated control plants.
as §2

[9] = tested on: Vetch aphid (Megoura viciae); assay: Vetch aphid (Megoura viciae) leaf disk test B.19; conditions: foliar, 120 h, read-out: mortality in comparison with untreated controls
Protocol: For evaluating control of vetch aphid (Megoura viciae) through contact or systemic means the test unit consisted of 24-well-microtiter plates containing broad bean leaf disks.
The compounds were formulated using a solution containing 75% v/v water and 25% v/v DMSO. Different concentrations of formulated compounds were sprayed onto the leaf disks at 2.5 μl, using a custom built micro atomizer, at two replications.
After application, the leaf disks were air-dried and 5-8 adult aphids placed on the leaf disks inside the microtiter plate wells. The aphids were then allowed to suck on the treated leaf disks and incubated at about 23±1° C. and about 50±5% relative humidity for 5 days. Aphid mortality and fecundity was then visually assessed.

[10] = tested on: Diamond back moth (Plutella xylostella); assay: Diamond back moth (Plutella xylostella) leaf dip test B.6; conditions: 300 ppm; cabbage leaf dip; 72 hours after treatment
Protocol: as §3
Leaves of cabbage were dipped in test solution and air-dried. Treated leaves were placed in petri dishes lined with moist filter paper and inoculated with ten 3rd instar larvae. Mortality was recorded 72 hours after treatment. Feeding damages were also recorded using a scale of 0-100%.

| SMILES | mortality at 300 ppm ([1]; Aphis gossypii, foliar, 120 h, read-out: mortality in comparison with untreated controls) [%] | Activity in % [1] [%] | mortality at 300 ppm ([2]; Aphis craccivora, 72 h, read-out: mortality in comparison with untreated controls) [%] | Activity in % [2] [%] | mortality at 2500 ppm ([3]; Myzus persicae, foliar, 120 h, read-out: mortality in comparison with untreated controls) [%] | Activity in % [3] [%] | mortality at 300 ppm [4] [%] | mortality at 300 ppm ([5]; Thrips, 72 h, read-out: mortality in comparison with untreated controls) [%] | Activity in % [5] [%] | mortality at 300 ppm ([6]; Nephotettix virescens, 72 h, read-out: mortality in comparison with untreated controls) [%] | Activity in % [6] [%] | mortality at 300 ppm [7] [%] | mortality at 300 ppm ([8]; Spodoptera eridania, in Phaseolus lunatus, foliar, 96 h, read-out: mortality in comparison with untreated controls) [%] | Activity in % [8] [%] | mortality at 2500 ppm [9] [%] | mortality in comparison with untreated controls [10] |
| --- | --- | --- | --- | --- | --- | --- | --- | --- | --- | --- | --- | --- | --- | --- | --- | --- |
| N#CC1(C(=O)N=c2ccccn2Cc2cnc(Cl)nc2)CC1 [I-1, N-[1-[(2-chloropyrimidin-5-yl)methyl]-2-pyridylidene]-1-cyano-cyclopropanecarboxamide] | > 75 | 90 | > 75 | 50 | > 75 | 100 | > 75 | > 75 | 100 | > 75 | 90 | > 75 | > 75 | 100 | > 75 |  |
| CON=CC(=O)N=c1ccccn1Cc1cnc(Cl)nc1 [I-2] |  |  |  |  |  |  |  |  |  |  |  |  |  |  |  | over 75% |
| N#CC1(C(=O)N=c2ccccn2Cc2cncnc2)CC1 [I.B-4, reference compound] |  | 0 |  | 0 |  | 50 |  |  | 0 |  | 50 |  |  | 0 |  |  |
